pKi: −log10 of the molar value.
Key:
[1] = target: T1, 5-hydroxytryptamine receptor 2C (Sus scrofa, UniProt G7ZKZ7)
T1 sequence (G7ZKZ7 whole entry): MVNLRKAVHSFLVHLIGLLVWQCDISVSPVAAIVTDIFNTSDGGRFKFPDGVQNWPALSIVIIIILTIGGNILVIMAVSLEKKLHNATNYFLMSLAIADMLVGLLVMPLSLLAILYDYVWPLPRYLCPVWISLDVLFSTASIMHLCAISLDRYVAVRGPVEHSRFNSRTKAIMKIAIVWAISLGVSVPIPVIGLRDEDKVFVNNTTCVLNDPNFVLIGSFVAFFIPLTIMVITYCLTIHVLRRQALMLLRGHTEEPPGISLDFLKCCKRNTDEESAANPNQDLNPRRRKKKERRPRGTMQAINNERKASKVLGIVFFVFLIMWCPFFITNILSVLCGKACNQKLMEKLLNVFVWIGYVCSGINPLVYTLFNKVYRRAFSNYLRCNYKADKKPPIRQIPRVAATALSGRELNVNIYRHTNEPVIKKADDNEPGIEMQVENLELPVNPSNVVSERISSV

[2] = target: 5-hydroxytryptamine receptor 4 (Cavia porcellus, UniProt O70528)
[3] = target: 5-hydroxytryptamine receptor 5A (Homo sapiens, UniProt P47898)
[4] = target: 5-hydroxytryptamine receptor 2A (Rattus norvegicus, UniProt P14842)
[5] = target: T2, 5-hydroxytryptamine receptor 3A (Rattus norvegicus, UniProt P35563)
T2 sequence (P35563 whole entry): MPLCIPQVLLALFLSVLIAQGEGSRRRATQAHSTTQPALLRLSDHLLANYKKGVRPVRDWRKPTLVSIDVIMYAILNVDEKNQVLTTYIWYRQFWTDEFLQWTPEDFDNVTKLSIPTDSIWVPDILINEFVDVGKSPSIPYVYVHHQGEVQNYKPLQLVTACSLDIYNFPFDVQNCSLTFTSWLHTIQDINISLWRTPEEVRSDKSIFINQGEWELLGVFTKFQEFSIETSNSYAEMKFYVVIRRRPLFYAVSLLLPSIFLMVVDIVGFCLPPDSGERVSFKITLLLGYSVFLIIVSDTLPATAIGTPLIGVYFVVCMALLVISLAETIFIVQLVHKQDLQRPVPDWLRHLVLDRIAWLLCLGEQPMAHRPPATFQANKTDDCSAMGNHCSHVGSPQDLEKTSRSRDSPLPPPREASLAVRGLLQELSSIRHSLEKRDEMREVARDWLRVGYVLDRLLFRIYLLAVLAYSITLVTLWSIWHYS

5-hydroxytryptamine receptor 2A, sequence (P14842 whole entry): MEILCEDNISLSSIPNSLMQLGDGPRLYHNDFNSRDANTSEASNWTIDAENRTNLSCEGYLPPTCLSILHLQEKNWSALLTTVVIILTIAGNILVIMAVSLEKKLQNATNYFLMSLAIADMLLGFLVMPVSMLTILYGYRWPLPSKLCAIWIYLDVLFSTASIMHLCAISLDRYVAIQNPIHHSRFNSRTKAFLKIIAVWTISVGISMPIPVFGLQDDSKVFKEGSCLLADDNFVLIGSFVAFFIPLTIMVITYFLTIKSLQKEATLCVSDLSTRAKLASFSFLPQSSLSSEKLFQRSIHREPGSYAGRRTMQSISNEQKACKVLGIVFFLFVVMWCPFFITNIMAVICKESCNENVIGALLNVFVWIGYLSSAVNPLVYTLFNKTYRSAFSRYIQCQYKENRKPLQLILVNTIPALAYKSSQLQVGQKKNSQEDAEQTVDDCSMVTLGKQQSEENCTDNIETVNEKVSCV
5-hydroxytryptamine receptor 5A, sequence (P47898 whole entry): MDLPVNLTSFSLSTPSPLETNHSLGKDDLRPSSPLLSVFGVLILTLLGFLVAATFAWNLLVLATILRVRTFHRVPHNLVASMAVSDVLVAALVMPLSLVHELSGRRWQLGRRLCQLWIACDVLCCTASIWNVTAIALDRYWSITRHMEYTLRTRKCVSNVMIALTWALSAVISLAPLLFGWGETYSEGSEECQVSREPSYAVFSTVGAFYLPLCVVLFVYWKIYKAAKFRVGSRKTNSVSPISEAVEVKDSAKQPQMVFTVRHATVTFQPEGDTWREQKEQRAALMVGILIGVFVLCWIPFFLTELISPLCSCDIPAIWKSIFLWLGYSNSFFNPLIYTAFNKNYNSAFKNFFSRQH
5-hydroxytryptamine receptor 4, sequence (O70528 whole entry): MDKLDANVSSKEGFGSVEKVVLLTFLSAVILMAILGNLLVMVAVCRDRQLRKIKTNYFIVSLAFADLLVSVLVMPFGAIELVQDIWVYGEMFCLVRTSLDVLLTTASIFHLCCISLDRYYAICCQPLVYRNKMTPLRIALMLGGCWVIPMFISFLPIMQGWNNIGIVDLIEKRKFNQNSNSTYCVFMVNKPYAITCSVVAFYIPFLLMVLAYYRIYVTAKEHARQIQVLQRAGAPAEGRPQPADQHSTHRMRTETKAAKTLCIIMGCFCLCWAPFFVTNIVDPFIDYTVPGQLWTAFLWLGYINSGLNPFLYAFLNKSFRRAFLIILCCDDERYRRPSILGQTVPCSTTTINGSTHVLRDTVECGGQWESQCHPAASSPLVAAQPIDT

pKi [1]: 6.20 | pKi [2]: < 5.00 | pKi [3]: 5.20 | pKi [4]: 7.40 | pKi [5]: 5.20
SMILES: COc1ccc(NC(=O)c2ccc(-c3ccc(-c4noc(C)n4)cc3C)cc2)cc1N1CCN(C)CC1 [SMR001230745]
